Experimental findings from patent US10654834B2 (Venenum Biodesign, LLC, priority 2016, dated 2020) are described below.

For assay [1], the system named is Mouse STC-1 cells. The experiment in a line: STC-1 GLP-1 assay (GLP-1 secretion). It counts as cell-based. The settings on record: Mouse STC-1 cells, GLP-1 secretion, 2 h; read-out: Mouse STC-1 HTRF GLP-1 Activity (EC50). In outline:
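Mouse STC-1 cells were plated two days ahead in DMEM with 10% charcoal-dextran stripped FBS, then exposed to compound in HBSS with protease inhibitors, DPP-IV inhibitor and 0.1% fatty acid free BSA for 2 h at 37° C. Active GLP-1 in supernatant was quantified by HTRF; EC50 derived from 12-point half-log curves.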

The target in assay [2] is T1, human TGR5 receptor (Homo sapiens, UniProt Q8TDU6).
T1 construct: host or cells: CHO-K1 (hTGR5-CHO)
T1 sequence (Q8TDU6 1-330): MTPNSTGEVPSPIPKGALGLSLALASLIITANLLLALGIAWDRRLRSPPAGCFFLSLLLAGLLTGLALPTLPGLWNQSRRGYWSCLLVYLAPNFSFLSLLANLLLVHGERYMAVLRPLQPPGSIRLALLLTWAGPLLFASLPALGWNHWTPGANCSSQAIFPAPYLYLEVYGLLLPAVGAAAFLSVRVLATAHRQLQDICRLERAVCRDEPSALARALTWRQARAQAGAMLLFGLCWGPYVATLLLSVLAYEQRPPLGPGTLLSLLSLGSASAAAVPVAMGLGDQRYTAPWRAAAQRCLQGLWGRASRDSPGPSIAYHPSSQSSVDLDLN
The assay is described as follows: Human TGR5 cAMP production assay (hTGR5-CHO cells, DiscoveRx cAMP XS+ kit). The class given is cell-based. The settings on record: luminescent cAMP assay, read-out: Human TGR5 Lum. cAMP Activity (EC50). In outline:
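CHO-K1 cells stably expressing hTGR5, in PBS with IBMX and cAMP antibody, treated with half-log compound dilutions for 1 h at room temperature. cAMP measured by enzyme-fragment complementation luminescence after overnight detection; EC50 values reported.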

Regarding `N#Cc1ccc(CCNC(=O)[C@@H]2CCN2c2cc(N3CCC(CCNC(=O)NCCOCCNC(=O)NCCC(=O)O)CC3)nc(C(F)(F)F)n2)cc1` [Compound 360, (S)-1-(1-(6-(2-((4-cyanophenethyl)carbamoyl)azetidin-1-yl)-2-(trifluoromethyl)pyrimidin-4-yl)piperidin-4-yl)-4,12-dioxo-8-oxa-3,5,11,13-tetraazahexadecan-16-oic acid], the EC50 in assay [1] and in assay [2] was under 100 nM each time.

As for `N#Cc1ccc(CCNC(=O)[C@@H]2CCCN2c2cc(N3CCC(CCNc4c(NCCC(=O)O)c(=O)c4=O)CC3)nc(C(F)(F)F)n2)cc1` [Compound 368, (S)-3-((2-((2-(1-(6-(2-((4-cyanophenethyl)carbamoyl)pyrrolidin-1-yl)-2-(trifluoromethyl)pyrimidin-4-yl)piperidin-4-yl)ethyl)amino)-3,4-dioxocyclobut-1-en-1-yl)amino)propanoic acid], the concentration giving a half-maximal response (EC50) in assay [1] was 100 to 999 nM; in assay [2] it was under 100 nM.

For the compound `N#Cc1ccc(CCNC(=O)[C@@H]2CCN2c2cc(N3CCC(CCNC(=O)NCCOCCNC(=O)NCCS(=O)(=O)O)CC3)nc(C(F)(F)F)n2)cc1` [Compound 358, (S)-15-(1-(6-(2-((4-cyanophenethyl)carbamoyl)azetidin-1-yl)-2-(trifluoromethyl)pyrimidin-4-yl)piperidin-4-yl)-4,12-dioxo-8-oxa-3,5,11,13-tetraazapentadecane-1-sulfonic acid], the EC50 in assay [1] and in assay [2] was under 100 nM in each case.

Turning to `N#Cc1ccc(CCNC(=O)[C@@H]2CCCN2c2cc(N3CCC(CCNC(=O)NCCS(=O)(=O)NCC(=O)O)CC3)nc(C(F)(F)F)n2)cc1` [Compound 107], the EC50 is 100 to 999 nM in assay [1] and under 100 nM in assay [2].

Regarding `NS(=O)(=O)CCNC(=O)CCCC1CCN(c2cc(N3CCC[C@H]3C(=O)NCCc3ccc(C(F)(F)F)cc3)nc(C(F)(F)F)n2)CC1` [Compound 59, (S)-1-(6-(4-(4-oxo-4-((2-sulfamoylethyl)amino)butyl)piperidin-1-yl)-2-(trifluoromethyl)pyrimidin-4-yl)-N-(4-(trifluoromethyl)phenethyl)-pyrrolidine-2-carboxamide], the half-maximal effective concentration (EC50) in assay [1] and in assay [2] was under 100 nM throughout.

`N#Cc1ccc(CCNC(=O)[C@@H]2CCN2c2cc(N3CCC(CCCC(=O)NCCCCNC(=N)N)CC3)nc(C(F)(F)F)n2)cc1` [Compound 283, (S)-N-(4-cyanophenethyl)-1-(6-(4-(4-((4-guanidinobutyl)amino)-4-oxobutyl)piperidin-1-yl)-2-(trifluoromethyl)pyrimidin-4-yl)azetidine-2-carboxamide]: the figures for the EC50 in assay [1] and in assay [2] were 100 to 999 nM and under 100 nM, respectively.

Take `N#Cc1ccc(CCNC(=O)[C@@H]2CCCN2c2cc(N3CCC(CCCC(=O)NCCS(=O)(=O)NCC(=O)O)CC3)nc(C(F)(F)F)n2)cc1` [Compound 115, (S)-2-(2-(4-(1-(6-(2-((4-cyanophenethyl)carbamoyl)pyrrolidin-1-yl)-2-(trifluoromethyl)pyrimidin-4-yl)piperidin-4-yl)butanamido)-ethylsulfonamido)acetic acid]: the concentration giving a half-maximal response (EC50) in assay [1] and in assay [2] was under 100 nM in each case.

Turning to `N#Cc1ccc(CCNC(=O)[C@@H]2CCCN2c2cc(N3CCC(OCC#CCS(=O)(=O)O)CC3)nc(C(F)(F)F)n2)cc1` [Compound 134, (S)-4-((1-(6-(2-((4-cyanophenethyl)carbamoyl)pyrrolidin-1-yl)-2-(trifluoromethyl)pyrimidin-4-yl)piperidin-4-yl)oxy)but-2-yne-1-sulfonic acid], the concentration giving a half-maximal response (EC50) in assay [1] is 100 to 999 nM; in assay [2] it was under 100 nM.

As to `N#Cc1ccc(CCNC(=O)[C@@H]2CCN2c2cc(N3CCC(CCNc4c(NCC(=O)O)c(=O)c4=O)CC3)nc(C(F)(F)F)n2)cc1` [Compound 302, (S)-2-((2-((2-(1-(6-(2-((4-cyanophenethyl)carbamoyl)azetidin-1-yl)-2-(trifluoromethyl)pyrimidin-4-yl)piperidin-4-yl)ethyl)amino)-3,4-dioxocyclobut-1-en-1-yl)amino)acetic acid], the concentration giving a half-maximal response (EC50) in assay [1] and in assay [2] was under 100 nM in each case.

Consider `N#Cc1ccc(CCNC(=O)[C@@H]2CCN2c2cc(N3CCC(CCCC(=O)NCP(=O)(O)O)CC3)nc(C(F)(F)F)n2)cc1` [Compound 362, (S)-((4-(1-(6-(2-((4-cyanophenethyl)carbamoyl)azetidin-1-yl)-2-(trifluoromethyl)pyrimidin-4-yl)piperidin-4-yl)butanamido)methyl)phosphonic acid], for which the concentration for a half-maximal effect (EC50) in assay [1] and in assay [2] was under 100 nM in each case.

With `O=C(O)CCC1CCN(c2cc(N3CC[C@H]3C(=O)NCCc3ccc(C(F)(F)F)cc3)nc(C(F)(F)F)n2)CC1` [Compound 232, (S)-3-(1-(2-(trifluoromethyl)-6-(2-((4-(trifluoromethyl)phenethyl)carbamoyl)azetidin-1-yl)pyrimidin-4-yl)piperidin-4-yl)propanoic acid], the EC50 in assay [1] and in assay [2] was under 100 nM in each case.

Turning to `N#Cc1ccc(CCNC(=O)[C@@H]2CCN2c2cc(N3CCC(CCCC(=O)NCCNC(=N)N)CC3)nc(C(F)(F)F)n2)cc1` [Compound 282, (S)—N-(4-cyanophenethyl)-1-(6-(4-(4-((2-guanidinoethyl)amino)-4-oxobutyl)piperidin-1-yl)-2-(trifluoromethyl)pyrimidin-4-yl)azetidine-2-carboxamide], the EC50 in assay [1] was 100 to 999 nM; in assay [2] it was under 100 nM.

Take `N#Cc1ccc(CCNC(=O)[C@@H]2CCN2c2cc(N3CCC(CCNS(=O)(=O)CCNC(=O)[C@@H](N)CS(=O)(=O)O)CC3)nc(C(F)(F)F)n2)cc1` [Compound 363, (R)-2-amino-3-((2-(N-(2-(1-(6-((S)-2-((4-cyanophenethyl)carbamoyl)azetidin-1-yl)-2-(trifluoromethyl)pyrimidin-4-yl)piperidin-4-yl)ethyl)sulfamoyl)ethyl)amino)-3-oxopropane-1-sulfonic acid]: the EC50 in assay [1] and in assay [2] was under 100 nM in each case.

Consider `N#Cc1ccc(CCNC(=O)[C@@H]2CCCN2c2cc(N3CCC(CCCNC(=O)NCC(=O)O)CC3)nc(C(F)(F)F)n2)cc1` [Compound 121, (S)-2-(3-(3-(1-(6-(2-((4-cyanophenethyl)carbamoyl)pyrrolidin-1-yl)-2-(trifluoromethyl)pyrimidin-4-yl)piperidin-4-yl)propyl)ureido)acetic acid], for which the EC50 in assay [1] and in assay [2] was 100 to 999 nM in each case.

Take `CN(C)CCC1CCN(c2cc(N3CCC[C@H]3C(=O)NCCc3ccc(C(F)(F)F)cc3)nc(C(F)(F)F)n2)CC1` [Compound 5]: the EC50 was 100 to 999 nM in assay [1] and under 100 nM in assay [2].

In the case of `N#Cc1ccc(CCNC(=O)[C@@H]2CCCN2c2cc(N3CCC(CCN)CC3)nc(C(F)(F)F)n2)cc1` [Compound 50, (S)-1-(6-(4-(2-aminoethyl)piperidin-1-yl)-2-(trifluoromethyl)pyrimidin-4-yl)-N-(4-cyanophenethyl)pyrrolidine-2-carboxamide], the EC50 in assay [1] is 1000 to 30000 nM; in assay [2], under 100 nM.

In the case of `N#Cc1ccc(CCNC(=O)[C@@H]2CCCN2c2cc(N3CCC(CCNc4c(NCCS(=O)(=O)O)c(=O)c4=O)CC3)nc(C(F)(F)F)n2)cc1` [Compound 367, (S)-2-((2-((2-(1-(6-(2-((4-cyanophenethyl)carbamoyl)pyrrolidin-1-yl)-2-(trifluoromethyl)pyrimidin-4-yl)piperidin-4-yl)ethyl)amino)-3,4-dioxocyclobut-1-en-1-yl)amino)ethanesulfonic acid], the results for the concentration for a half-maximal effect (EC50) in assay [1] and in assay [2] were 100 to 999 nM and under 100 nM, respectively.

Regarding `N#Cc1ccc(CCNC(=O)[C@@H]2CCCN2c2cc(-c3ccc(CCC(=O)NCS(=O)(=O)O)cc3)cc(C(F)(F)F)n2)cc1` [Compound 206, (S)-(3-(4-(2-(2-((4-cyanophenethyl)carbamoyl)pyrrolidin-1-yl)-6-(trifluoromethyl)pyridin-4-yl)phenyl)propanamido)methanesulfonic acid], the EC50 is 100 to 999 nM in assay [1] and under 100 nM in assay [2].

As for `N#Cc1ccc(CCNC(=O)[C@@H]2CCN2c2cc(N3CCC(CCCC(=O)NCCOCCNC(=N)N)CC3)nc(C(F)(F)F)n2)cc1` [Compound 284, (S)-N-(4-cyanophenethyl)-1-(6-(4-(4-((2-(2-guanidinoethoxy)-ethyl)amino)-4-oxobutyl)piperidin-1-yl)-2-(trifluoromethyl)pyrimidin-4-yl)azetidine-2-carboxamide], the 50% effective concentration (EC50) in assay [1] is 100 to 999 nM; in assay [2] it was under 100 nM.

On to `N#Cc1ccc(CCNC(=O)[C@@H]2CCN2c2cc(N3CCC(CCNC(=O)NCS(=O)(=O)O)CC3)nc(C(F)(F)F)n2)cc1` [Compound 270, (S)-(3-(2-(1-(6-(2-((4-cyanophenethyl)carbamoyl)azetidin-1-yl)-2-(trifluoromethyl)pyrimidin-4-yl)piperidin-4-yl)ethyl)ureido)-methanesulfonic acid], for which the concentration for a half-maximal effect (EC50) in assay [1] and in assay [2] was under 100 nM throughout.
